Values quoted from earlier work in patent US20040058943A1, “Medicinal composition for treatment of chronic cardiac failure” (priority 2001, published 2004).
Where two headings read alike, the source gives them in different places.

Columns and labels:
[1] = test system: model rats of heart failure; details: 10-week oral administration
[2] = test system: model rats of heart failure after myocardial infarction; details: for effect on mortality: 9-months long-term oral administration

Compound | ameliorating the left ventricular end-diastolic pressure (LVEDP) [1] | cardiac hypertrophy [1] | maximum value of the first order differentiation of the left ventricular systolic pressure (LVdP/dtmax) [1] | effect on mortality ([2]; dose 30 mg/kg·day) | effect on mortality ([2]; dose 100 mg/kg·day) | ameliorating the left ventricular end-diastolic pressure (LVEDP) ([2]; long-term oral administration) | maximum value of the first order differentiation of the left ventricular systolic pressure (LVdP/dtmax) ([2]; long-term oral administration)
COc1cc(OC)nc(O[C@H](C(=O)O)C(OC)(c2ccccc2)c2ccccc2)n1 [darusentan] | effective | ineffective | ineffective | – | – | – | –
COc1ccccc1Oc1c(NS(=O)(=O)c2ccc(C(C)(C)C)cc2)nc(-c2ncccn2)nc1OCCO [bosentan] | – | – | – | ineffective | significantly reduces the mortality | effective | ineffective
